This is an account of results in publication PMC9016803, “Mitochondria-targeted half-sandwich iridium(III)-Cp*-arylimidazophenanthroline complexes as antiproliferative and bioimaging agents against triple negative breast cancer cells MDA-MB-468” (RSC Advances, 2022).

For orientation: IC50 means the concentration needed to halve the response being measured. Low readings indicate inhibition by little substance, high ones a need for much substance.

Data set [1] has as its system MDA-MB-468 cells. The experiment in a line: Cell cycle analysis. To be noted: 5 μM. The data set is classed as cell-based. The method, then: The IrL1 complex exerted a G0/G1 cell cycle arrest at the highest tested concentration of 5 μM. The effects of various concentrations of IrL1 complex on the cell cycle of breast cancer cell line MDA-MB-468 cells were further explored by cell cycle analysis.

For a further data set, the system named is CT-DNA. The experiment in a line: Ethidium bromide displacement (fluorescence quenching) assay. The data set is classed as binding, calf. Here is the method: The competitive binding of compounds IrL1 to CT-DNA was studied via fluorescence spectroscopy using ethidium bromide (EtBr) as the fluorophore. […] Intrinsic binding constant (Kb), Stern–Volmer quenching constant (Ksv) and apparent binding constant (Kapp) were highlighted in Table 2. […]
Ethidium bromide displacement assay
The ethidium bromide (EtBr) displacement assay was carried out to illustrate the mode of binding between the potent compounds with DNA.4 The apparent binding constant (K app) of the complexe IrL1 to Ct-DNA were calculated using ethidium bromide (EtBr) as a spectral probe in 5 mM Tris-HCl buffer (pH 7.4). The values of the apparent binding constant (K app) were obtained by using the equation (iii):
Kapp × [Complex]50 = kEtBr × [EtBr]⋯⋯⋯(iii)
Where KEtBr is the EtBr binding constant (K EtBr = 1.0 x 107 M-1), and [EtBr] = 8 x 10^-6 M.
Stern-Volmer equation was followed for quantitative determination of the Stern-Volmer quenching constant (K SV).5 Origin (8.5) software was used to plot the fluorescence data to obtain linear plot of I0/I vs. [complex]. The value of KSV was calculated from the following […]
Where I0 = fluorescence intensity in absence of complex and I = fluorescence intensities in presence of complex of concentration [Q].
We are acquainted with the fact that serum albumin proteins are the main component. […]

The test system of data set [2] is MDA-MB-468 cells. The experiment in a line: MTT in vitro cytotoxicity assay, triple negative breast cancer cells. The note with it: MDA-MB-468, MTT, 48 h. The data set is classed as cell-based. Here is the method: The in vitro cytotoxicity of complexes IrL1–IrL5 and cisplatin were investigated using the typical 3-(4,5-dimethylthiazol-2-yl)-2,5-diphenyltetrazolium bromide (MTT) assay protocol against a panel of triple negative cancer cell line MDA-MB-468. The cells were initially incubated with the all test compounds at concentrations ranging from 0.5–50 μM for 48 h in vitro.
Cytotoxicity study of all the synthesized compounds against triple negative breast cancer cells MDA-MB-468 and immortalized human keratinocyte cell line HaCaT were done with a drug incubation period of 48 h by following standard procedure that were mentioned in ESI. ^† Preliminary studies were done to understand the mode of action of the complex to induce cytotoxicity using flow cytometric methods.
For doing the cell culture the cells were retained in DMEM media (Gibco), added with 10% fetal bovine serum (Himedia, India), 1% penicillin and streptomycin and 1% of Glutmax (Gibco, Thermo Scientific, USA) at 37°C in 5% CO2. When the cells attained 70%-80% confluency they were trypsinized using 0.25% trypsin-EDTA (Thermo Fisher Scientific, […]
In vitro cytotoxicity study was measured by standard MTT assay protocol.1 First the prepared complexes (IrL1-IrL5) were dissolved in 0.1% DMSO followed by dilution with DMEM medium. One cancer cell lines i.e. triple negative breast cancer cells (MDA-MB-468) and one normal cell line i.e. immortalized human keratinocyte cell line (HaCaT) were used for this assay. Approximately 1×10^4 cells per well were cultured in 100 μl of a growth medium in 96-well plates and then incubated under 5% CO2 atmosphere at 37°C temperature. Then the incubated cells were treated with different concentrations of the complexes in the volume of […]. The cisplatin was taken as standard positive control for this experiment. The Cells which were in the control wells, also engaged the same volume of medium containing 0.1% DMSO. After 48 h, the medium was superfluous and cell cultures were again incubated with 100 μL of MTT reagent (1 mg/ml) for 5 h at 37 °C. Then the resultant suspension was kept on micro vibrator for 10 min and the absorbance was recorded at λ = 570 nm in ELISA plate reader. The experiment was also performed in triplicate. The data were represented as the growth inhibition percentage i.e. % growth inhibition = 100 − [(AD × 100)/AB], where AD, measured absorbance in wells which contain samples and AB, measured absorbance for blank wells (cells with a medium and a vehicle). […]

The test system of data set [3] is MDA-MB-468 cells. The experiment in a line: Annexin V-FITC/PI apoptosis assay. The data set is classed as cell-based. The note with it: 3 μM.

As for “[Iridium(III)-Cp*-2-(naphthalen-1-yl)-1H-imidazo[4,5-f][1,10]phenanthroline]PF6 [IrL1]”, in the data set on MDA-MB-468 cells [1], the G0/G1 phase cells was found to be 53.32%, the G2/M phase cells is on record as about 18.37% and the S phase cells was about 28.32%. Further, in the data set on CT-DNA (EtBr-bound CT-DNA), the “Ksv, Stern–Volmer quenching constant” value was determined as 22000 M⁻¹. Also, the “Kapp, apparent DNA binding constant” value in the data set on CT-DNA (competitive displacement of EtBr) was determined as 2500 M⁻¹. Also, in the data set on MDA-MB-468 cells [2], the half-inhibitory concentration (IC50) is 3.67 µM. In addition, in the data set with MDA-MB-468 cells [3], the early apoptotic cells is reported as about 34.89% and the viable cell population was about 51.37%.
